BigSolDB 2.1

O=C(O)c1cc(O)c(O)c(O)c1
solubility (mole fraction)
Conditions	293.15 K	298.15 K	303.15 K	308.15 K	313.15 K	318.15 K
in acetonitrile	0.0274	0.0341	0.0355	0.0378	0.0391	0.0405
in isopropanol	0.028	0.0348	0.0362	0.0386	0.04	0.0409
in n-propanol	0.0332	0.0413	0.0429	0.0458	0.0474	0.0486
in water	0.00127	0.00148	0.00204	0.00252	0.0032	0.0038
